Experimental data as given in patent US8637498B2, “Oxopiperazine-azetidine amides and oxodiazepine-azetidine amides as monoacylglycerol lipase inhibitors” (Janssen Pharmaceutica, NV, priority 2010, dated 2014).
Residue numbers refer to the chain shown, from its start. Like-named read-outs stand apart in the source and are kept apart here.

Key:
[1] = biological target: T1, purified mutant MGL (mut-MGLL 11-313 L179S L186S) (Homo sapiens, UniProt Q99685, L169S/L176S); assay: MGL Enzyme Activity Assay (mutant MGL, 4MU-B substrate); type: biochemical; details: mutant MGL 5 nM, 4MU-B 10 μM, 37° C.; read-out: MGL mutant inh IC50
T1 construct: mut-MGLL 11-313 L179S L186S
T1 sequence (Q99685 1-303 L169S/L176S): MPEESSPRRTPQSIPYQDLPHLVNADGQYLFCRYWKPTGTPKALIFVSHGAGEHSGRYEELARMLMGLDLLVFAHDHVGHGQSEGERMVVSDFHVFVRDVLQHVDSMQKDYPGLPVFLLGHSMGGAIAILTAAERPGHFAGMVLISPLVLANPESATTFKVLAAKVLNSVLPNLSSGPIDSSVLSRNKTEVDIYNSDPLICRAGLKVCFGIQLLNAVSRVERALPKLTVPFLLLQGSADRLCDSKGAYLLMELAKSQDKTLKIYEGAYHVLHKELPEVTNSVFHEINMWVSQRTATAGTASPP
Experimental: (§1) All rate-based assays were performed in black 384-well polypropylene PCR microplates (Abgene) in a total volume of 30 μL. Substrate 4-methylumbelliferyl butyrate (4MU-B; Sigma) and either purified mutant MGL (mut-MGLL 11-313 L179S L186S) or purified wild type MGL (wt-MGLL 6H-11-313) were diluted separately into 20 mM PIPES buffer (pH=7.0), containing 150 mM NaCl and 0.001% Tween 20. Compounds of Formula (Ia) and (Ib) were pre-dispensed (50 nL) into the assay plate using a Cartesian Hummingbird prior to adding 4MU-B (25 μL of 1.2× solution to a final concentration of 10 μM) followed by enzyme (5 μL of a 6× solution to a final concentration of 5 nM) to initiate the reaction. Final compound concentrations ranged from 17 to 0.0003 μM. The fluorescence change due to 4MU-B cleavage was monitored with excitation and emission wavelengths of 335 and 440 nm, respectively, and a bandwidth of 10 nm (Safire^2, Tecan) at 37° C. for 5 min.
(§2) The IC50 values for compounds of Formula (Ia) or (Ib) were determined using Excel from a fit of the equation to the concentration-response plot of the fractional activity as a function of inhibitor concentration.

mutant MGL = biological target: T2, mutant MGL (Homo sapiens, UniProt Q99685, L169S/L176S); assay: MGL ThermoFluor Assay - Mutant; type: binding
T2 construct: mut-MGLL 11-313 L179S L186S
T2 sequence (Q99685 1-303 L169S/L176S): T1 sequence (Q99685 1-303 L169S/L176S)
Experimental: The ThermoFluor (TF) assay is a 384-well plate-based binding assay that measures thermal stability of proteins^1,2. The experiments were carried out using instruments available from Johnson & Johnson Pharmaceutical Research & Development, LLC. TF dye used in all experiments was 1,8-ANS (Invitrogen: A-47). Final TF assay conditions used for MGL studies were 0.07 mg/ml of mutant MGL, 100 μM ANS, 200 mM NaCl, 0.001% Tween-20 in 50 mM PIPES (pH=7.0).
Screening compound plates contained 100% DMSO compound solutions at a single concentration. For follow-up concentration-response studies, compounds were arranged in a pre-dispensed plate (Greiner Bio-one: 781280), wherein compounds were serially diluted in 100% DMSO across 11 columns within a series. Columns 12 and 24 were used as DMSO reference and contained no compound. For both single and multiple compound concentration-repsonse experiments, the compound aliquots (46 nL) were robotically predispensed directly into 384-well black assay plates (Abgene: TF-0384/k) using the Hummingbird liquid handler. Following compound dispension, protein and dye solutions were added to achieve the final assay volume of 3 μL. The assay solutions were overlayed with 1 μL of silicone oil (Fluka, type DC 200: 85411) to prevent evaporation.
Bar-coded assay plates were robotically loaded onto a thermostatically controlled PCR-type thermal block and then heated from 40 to 90° C. degrees at a ramp-rate of 1° C./min for all experiments. Fluorescence was measured by continuous illumination with UV light (Hamamatsu LC6), supplied via fiber optics and filtered through a band-pass filter (380-400 nm; >6 OD cutoff). Fluorescence emission of the entire 384-well plate was detected by measuring light intensity using a CCD camera (Sensys, Roper Scientific) filtered to detect 500±25 nm, resulting in simultaneous and independent readings of all 384 wells. A single image with 20-sec exposure time was collected at each temperature, and the sum of the pixel intensity in a given area of the assay plate was recorded vs temperature and fit to standard equations to yield the Tm^1. • 1. Pantoliano, M. W., Petrella, E. C., Kwasnoski, J. D., Lobanov, V. S., Myslik, J., Graf, E., Carver, T., Asel, E., Springer, B. A., Lane, P., and Salemme, F. R. (2001) J Biomol Screen 6, 429-40. • 2. Matulis, D., Kranz, J. K., Salemme, F. R., and Todd, M. J. (2005) Biochemistry 44, 5258-66.
The Kd values for compounds of Formula (Ia) and (Ib) were determined from a fit of the equation to the concentration-response plot of the fractional activity as a function of Tm. For some experiments, quantitative NMR spectroscopy (qNMR) was used to measure concentration of the initial 100% DMSO compound solutions and, using the same fitting method, qKd values were determined.

[2] = biological target: T3, purified wild type MGL (wt-MGLL 6H-11-313) (Homo sapiens, UniProt Q99685); assay: MGL Enzyme Activity Assay (wild type MGL, 4MU-B substrate); type: biochemical; details: wild type MGL 5 nM, 4MU-B 10 μM, 37° C.; read-out: MGL wild type inh IC50
T3 construct: wt-MGLL 6H-11-313; 6H (hexahistidine) (N)
T3 sequence (Q99685 1-303): T1 sequence (Q99685 1-303 L169S/L176S) with S169L, S176L
Experimental: as §1, §2

MGL = biological target: T4, MGL (Rattus norvegicus, UniProt Q8R431); assay: 2-AG Accumulation Assay in rat brain homogenate; type: biochemical; details: compound @1 μM, 2-AG accumulation as percent of vehicle
T4 construct: one g rat brain was homogenized; from tissue; host or cells: rat brain homogenate
T4 sequence (Q8R431 1-303): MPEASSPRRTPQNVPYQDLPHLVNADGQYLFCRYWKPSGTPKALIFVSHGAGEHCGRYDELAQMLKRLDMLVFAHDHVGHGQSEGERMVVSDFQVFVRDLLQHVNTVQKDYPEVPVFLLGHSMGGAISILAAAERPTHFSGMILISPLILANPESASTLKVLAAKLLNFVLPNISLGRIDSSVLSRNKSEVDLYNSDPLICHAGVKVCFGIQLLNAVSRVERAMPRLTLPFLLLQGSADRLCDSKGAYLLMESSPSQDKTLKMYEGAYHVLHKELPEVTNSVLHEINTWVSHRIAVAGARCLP
Experimental: After a 15-min incubation time at 37° C., CaCl2 (final concentration=10 mM) was added and then incubated for 15 min at 37° C. in a total volume of 5 mL. The reactions were stopped with 6 mL organic solvent extraction solution of 2:1 chloroform/methanol. Accumulated 2-AG in the organic phase was measured by a HPLC/MS method, according to the following equation: percent vehicle=(2-AG accumulation in the presence of compound/2-AG accumulation in vehicle)×100.

[3] = mutant MGL 0.07 mg/ml, 1,8-ANS dye, read-out: MGL mutant ThermoFluor Kd
[4] = mutant MGL, compound concentration measured by qNMR, read-out: MGL mutant ThermoFluor qKd (using qNMR conc.)

Row | Compound | IC50 [1] | Kd (mutant MGL; [3]) | IC50 [2] | Rat Brain 2AG % VehCntrl (%) @1 μM (MGL) | Kd (mutant MGL; [4])
1 | O=C(c1ccc(Cc2ccccc2)cc1)N1CC(N2CCN(c3ccccc3)C(=O)C2)C1 [Cpd 1, 4-(1-(4-benzylbenzoyl)azetidin-3-yl)-1-phenylpiperazin-2-one] | 5280 nM | 3330 nM | – | – | –
2 | O=C(c1ccc(-c2ccccc2)cc1)N1CC(N2CCN(c3ccccc3)C(=O)C2)C1 [Cpd 2, 4-(1-([1,1′-biphenyl]-4-carbonyl)azetidin-3-yl)-1-phenylpiperazin-2-one] | 4240 nM | 19700 nM | – | – | –
3 | O=C(c1ccc2c(ccn2-c2ccc(C(F)(F)F)cc2)c1)N1CC(N2CCN(c3ncccn3)C(=O)C2)C1 [Cpd 3, 1-Pyrimidin-2-yl-4-[1-({1-[4-(trifluoromethyl)phenyl]-1H-indol-5-yl}carbonyl)azetidin-3-yl]piperazin-2-one] | – | 39.8 nM | 6 nM | 418% | –
4 | O=C(c1ccc2c(ccn2-c2ccc(F)cc2)c1)N1CC(N2CCN(c3nccs3)C(=O)C2)C1 [Cpd 5, 4-(1-{[1-(4-Fluorophenyl)-1H-indol-5-yl]carbonyl}azetidin-3-yl)-1-(1,3-thiazol-2-yl)piperazin-2-one] | – | – | 10 nM | 316% | 171 nM
5 | O=C(c1ccc2c(ccn2-c2ccc(F)cc2)c1)N1CC(N2CCN(c3cscn3)C(=O)C2)C1 [Cpd 6, 4-(1-{[1-(4-Fluorophenyl)-1H-indol-5-yl]carbonyl}azetidin-3-yl)-1-(1,3-thiazol-4-yl)piperazin-2-one] | – | – | 29 nM | 302% | 621 nM
6 | O=C(c1sc2cc(C(F)(F)F)ccc2c1Cl)N1CC(N2CCN(c3cscn3)C(=O)C2)C1 [Cpd 7, 4-(1-{[3-Chloro-6-(trifluoromethyl)-1-benzothiophen-2-yl]carbonyl}azetidin-3-yl)-1-(1,3-thiazol-4-yl)piperazin-2-one] | – | – | 67.2 nM | 155% | 186 nM
7 | O=C(c1ccc2c(ccn2-c2ccc(C(F)(F)F)cc2)c1)N1CC(N2CCN(c3ncccn3)CC2=O)C1 [Cpd 24, 4-Pyrimidin-2-yl-1-[1-({1-[4-(trifluoromethyl)phenyl]-1H-indol-5-yl}carbonyl)azetidin-3-yl]piperazin-2-one] | – | 433 nM | 37.9 nM | 155% | –
